Active and inactive are the calls of the source. The rule behind the calls is not given here. Numbered stars: 1 amine (or outer) side, 2 acyl side, 3 side chain; on linkers, the order of the positions; unused ones are H or OH. Square brackets hold non-standard residues; d marks the D form. Side chains are listed from the residue outwards. Peptide text beside a SMILES is read from it. * marks the point of attachment. X4 = CN1/C(=C/C=C/C=C/C2=[N+](CCCCCC(=O)*)c3ccc(S(=O)(=O)[O-])cc3C2(C)C)C(C)(C)c2cc(S(=O)(=O)O)ccc21; X3 = C[C@@H](O)[C@@H](C(=O)[*:2])N(CCCn1nnc2c1-c1ccccc1CN([*:3])c1ccccc1-2)[*:1]; Biotin = O=C1N[C@H]2[C@H](CS[C@H]2CCCCC(=O)*)N1; GABA = NCCCC(=O)O
Key:
[1] = target: T1, GDNF family receptor alpha-like (Homo sapiens, UniProt Q6UXV0); experiment: Binding affinity to C-terminal polyhis-tagged recombinant human GFRAL (19 to 351 residues) expressed in HEK293 cells assessed as dissociation constant with increasing enzyme concentration by SPR analysis
T1 sequence (Q6UXV0 whole entry): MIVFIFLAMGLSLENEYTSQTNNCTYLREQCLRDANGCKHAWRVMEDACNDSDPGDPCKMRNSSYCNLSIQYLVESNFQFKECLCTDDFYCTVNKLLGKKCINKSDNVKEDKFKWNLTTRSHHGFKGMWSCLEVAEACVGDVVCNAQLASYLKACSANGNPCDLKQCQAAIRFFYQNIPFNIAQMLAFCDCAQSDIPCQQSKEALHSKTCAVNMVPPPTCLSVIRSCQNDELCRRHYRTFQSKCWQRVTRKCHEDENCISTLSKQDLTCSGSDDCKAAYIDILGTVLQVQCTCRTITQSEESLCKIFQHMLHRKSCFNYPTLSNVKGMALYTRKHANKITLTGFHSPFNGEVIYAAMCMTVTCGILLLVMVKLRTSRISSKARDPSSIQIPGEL

[2] = target: T1, GDNF family receptor alpha-like; experiment: Binding affinity to C-terminal polyhis-tagged recombinant human GFRAL (19 to 351 residues) expressed in HEK293 cells assessed as dissociation constant by SPR analysis
[3] = Toxicity in Sprague-Dawley rat assessed as food intake at 300 to 3000 pmol, ICV measured for 24 hrs; conditions: in vivo, icv_or_intrathecal, dose 300-3000 pmol
[4] = Toxicity in Sprague-Dawley rat assessed as kaolin intake at 300 to 3000 pmol, ICV measured for 24 hrs; conditions: in vivo, icv_or_intrathecal, dose 300-3000 pmol
Rattus norvegicus [5] = experiment: Effect on pica behaviour in Sprague-Dawley rat assessed as reduction in GDF-15-induced kaolin intake pretreated intracerebroventricularly followed by GDF-15 treatment measured for 24 hrs; format: functional; conditions: dose 300-3000 pmol, route icv
Rattus norvegicus [6] = experiment: Effect on GDF-15-induced anorexia in Sprague-Dawley rat at 300 to 3000 pmol pre-treated intracerebroventricularly followed by GDF-15 treatment measured for 24 hrs; format: functional; conditions: dose 300-3000 pmol, route icv
[7] = Toxicity in Sprague-Dawley rat assessed as food intake at 30 to 100 nmol/kg, IP measured for 24 hrs; conditions: in vivo, dose 30-100 nmol/kg
[8] = Toxicity in Sprague-Dawley rat assessed as kaolin intake at 30 to 100 nmol/kg, IP measured for 24 hrs; conditions: in vivo, dose 30-100 nmol/kg
Rattus norvegicus [9] = experiment: Effect on GDF-15-induced anorexia in Sprague-Dawley rat at 30 to 100 nmol/kg pretreated intraperitoneally followed by GDF-15 treatment measured for 24 hrs; format: functional; conditions: dose 30-100 nmol/kg, route ip
Rattus norvegicus [10] = experiment: Effect on pica behaviour in Sprague-Dawley rat assessed as reduction in GDF-15-induced kaolin intake at 100 nmol/kg pretreated intraperitoneally followed by GDF-15 treatment measured for 24 hrs; format: functional; conditions: route ip
[11] = Toxicity in Sprague-Dawley rat assessed as kaolin intake at 100 nmol/kg, IP measured for 24 hrs; conditions: in vivo
[12] = Toxicity in Sprague-Dawley rat assessed as food intake at 100 nmol/kg, IP measured for 24 hrs; conditions: in vivo
Rattus norvegicus [13] = experiment: Effect on pica behaviour in Sprague-Dawley rat assessed as reduction in cisplatin-induced kaolin intake at 100 nmol/kg, IP pretreated for 15 mins followed by cisplatin treatment measured for 6 hrs; format: functional; conditions: time 6.25 hrs
[14] = Toxicity in Sprague-Dawley rat assessed as drug tolerance at 100 nmol/kg, IP measured for 24 hrs; conditions: in vivo
[15] = Toxicity in Sprague-Dawley rat assessed as drug tolerance at 100 nmol/kg, IP measured for 24 hrs in presence of Ondansetron; conditions: in vivo
Rattus norvegicus [16] = experiment: Effect on pica behaviour in Sprague-Dawley rat assessed as food intake at 100 nmol/kg, IP measured for 24 hrs; format: functional
Rattus norvegicus [17] = experiment: Effect on pica behaviour in Sprague-Dawley rat assessed as kaolin intake at 100 nmol/kg, IP measured for 24 hrs; format: functional
Rattus norvegicus [18] = experiment: Effect on pica behaviour in Sprague-Dawley rat assessed as food intake at 100 nmol/kg, IP measured for 24 hrs in presence of Ondansetron; format: functional
Rattus norvegicus [19] = experiment: Effect on pica behaviour in Sprague-Dawley rat assessed as kaolin intake at 100 nmol/kg, IP measured for 24 hrs in presence of Ondansetron; format: functional
Rattus norvegicus [20] = experiment: Effect on pica behaviour in Sprague-Dawley rat assessed as reduction in cisplatin-induced kaolin intake at 100 nmol/kg, IP bid measured for 24 hrs; format: functional
[21] = Toxicity in cisplatin-induced nausea and vomiting Sprague-Dawley rat model assessed as additive effect at 100 nmol/kg, IP bid measured for 24 hrs in presence of Ondansetron; conditions: in vivo
Rattus norvegicus [22] = experiment: Effect on pica behaviour in Sprague-Dawley rat assessed as reduction in cisplatin-induced kaolin intake at 2 mg/kg, IP measured for 24 hrs; format: functional, organism-based
Rattus norvegicus [23] = experiment: Effect on pica behaviour in Sprague-Dawley rat assessed as reduction in cisplatin-induced anorexia at 100 nmol/kg, IP bid measured for 24 hrs in presence of Ondansetron; format: functional
[24] = target: T1, GDNF family receptor alpha-like; experiment: Binding affinity to C-terminal polyhis-tagged recombinant human GFRAL (19 to 351 residues) expressed in HEK293 cells assessed as dissociation constant by flow cytometric analysis; format: cell-based

Compound: CC[C@H](C)[C@H](NC(=O)[C@H](CC(C)C)NC(=O)[C@H](CCC(=O)O)NC(=O)[C@H](CCC(=O)O)NC(=O)[C@H](CCCCN)NC(=O)[C@@H](NC(=O)CCCC[C@@H]1SC[C@@H]2NC(=O)N[C@@H]21)[C@@H](C)O)C(=O)N[C@@H](Cc1c[nH]cn1)C(=O)N[C@@H](C)C(=O)N[C@@H](Cc1c[nH]cn1)C(=O)N[C@@H](C)C(=O)N[C@@H](CC(=O)O)C(=O)N1CCC[C@H]1C(=O)N[C@@H](CCSC)C(=O)N[C@H](C(=O)N[C@@H](CC(C)C)C(=O)N[C@H](C(=O)N[C@@H](CCC(N)=O)C(=O)N[C@@H](CCCCN)C(=O)N[C@H](C(=O)N[C@@H](CC(=O)O)C(=O)N[C@H](C(=O)NCC(=O)N[C@H](C(=O)N[C@@H](CO)C(=O)N[C@@H](CC(C)C)C(=O)N[C@@H](CCC(N)=O)C(=O)N[C@H](C(=O)N[C@@H](Cc1ccc(O)cc1)C(=O)N[C@@H](CC(=O)O)C(=O)O)[C@@H](C)O)C(C)C)[C@@H](C)O)[C@@H](C)O)[C@@H](C)CC)C(C)C (Biotin-TKEELIHAHADPMVLIQKTDTGVSLQTYD-OH)
- Kd [1]: 74.1 nM

Compound: CC[C@H](C)[C@H](NC(=O)[C@H](CC(C)C)NC(=O)[C@H](CCC(=O)O)NC(=O)[C@H](CCC(=O)O)NC(=O)[C@H](CCCCN)NC(=O)[C@@H](N)[C@@H](C)O)C(=O)N[C@@H](Cc1c[nH]cn1)C(=O)N[C@@H](C)C(=O)N[C@@H](Cc1c[nH]cn1)C(=O)N[C@@H](C)C(=O)N[C@@H](CC(=O)O)C(=O)N1CCC[C@H]1C(=O)N[C@@H](CCSC)C(=O)N[C@H](C(=O)N[C@@H](CC(C)C)C(=O)N[C@H](C(=O)N[C@@H](CCC(N)=O)C(=O)N[C@@H](CCCCN)C(=O)N[C@H](C(=O)N[C@@H](CC(=O)O)C(=O)N[C@H](C(=O)NCC(=O)N[C@H](C(=O)N[C@@H](CO)C(=O)N[C@@H](CC(C)C)C(=O)N[C@@H](CCC(N)=O)C(=O)N[C@H](C(=O)N[C@@H](Cc1ccc(O)cc1)C(=O)N[C@@H](CC(=O)O)C(=O)O)[C@@H](C)O)C(C)C)[C@@H](C)O)[C@@H](C)O)[C@@H](C)CC)C(C)C (H-TKEELIHAHADPMVLIQKTDTGVSLQTYD-OH)
- Kd [2]: 179000 nM
- Activity [3]: Non-Toxic
- Activity [4]: Non-Toxic
- Activity (Rattus norvegicus [5]): Active
- Activity (Rattus norvegicus [6]): inactive
- Activity [7]: Non-Toxic
- Activity [8]: Non-Toxic
- Activity (Rattus norvegicus [9]): inactive
- Activity (Rattus norvegicus [10]): Active
- Activity [11]: Non-Toxic
- Activity [12]: Non-Toxic
- Activity (Rattus norvegicus [13]): Active
- Activity [14]: Non-Toxic
- Activity [15]: Non-Toxic
- Activity (Rattus norvegicus [16]): inactive
- Activity (Rattus norvegicus [17]): inactive
- Activity (Rattus norvegicus [18]): inactive
- Activity (Rattus norvegicus [19]): inactive
- Activity (Rattus norvegicus [20]): Active
- Activity [21]: Non-Toxic
- Activity (Rattus norvegicus [22]): Active
- Activity (Rattus norvegicus [23]): Active

Compound: CC[C@H](C)[C@H](NC(=O)[C@H](CC(C)C)NC(=O)[C@H](CCC(=O)O)NC(=O)[C@H](CCC(=O)O)NC(=O)[C@H](CCCCN)NC(=O)[C@@H](NCCCn1nnc2c1-c1ccccc1CN(C(=O)CCCNC(=O)CCCCC[N+]1=C(/C=C/C=C/C=C3/N(C)c4ccc(S(=O)(=O)O)cc4C3(C)C)C(C)(C)c3cc(S(=O)(=O)[O-])ccc31)c1ccccc1-2)[C@@H](C)O)C(=O)N[C@@H](Cc1c[nH]cn1)C(=O)N[C@@H](C)C(=O)N[C@@H](Cc1c[nH]cn1)C(=O)N[C@@H](C)C(=O)N[C@@H](CC(=O)O)C(=O)N1CCC[C@H]1C(=O)N[C@@H](CCSC)C(=O)N[C@H](C(=O)N[C@@H](CC(C)C)C(=O)N[C@H](C(=O)N[C@@H](CCC(N)=O)C(=O)N[C@@H](CCCCN)C(=O)N[C@H](C(=O)N[C@@H](CC(=O)O)C(=O)N[C@H](C(=O)NCC(=O)N[C@H](C(=O)N[C@@H](CO)C(=O)N[C@@H](CC(C)C)C(=O)N[C@@H](CCC(N)=O)C(=O)N[C@H](C(=O)N[C@@H](Cc1ccc(O)cc1)C(=O)N[C@@H](CC(=O)O)C(=O)O)[C@@H](C)O)C(C)C)[C@@H](C)O)[C@@H](C)O)[C@@H](C)CC)C(C)C (H-[X3]([GABA-X4])KEELIHAHADPMVLIQKTDTGVSLQTYD-OH)
- Kd [24]: 8.98 nM

— ChEMBL document CHEMBL5360631, “Creation of a Peptide Antagonist of the GFRAL-RET Receptor Complex for the Treatment of GDF15-Induced Malaise” (J Med Chem, 2023)
